Test: Extractables and leachables from UV absorber containing films in synthetic perspiration, quantitative 1H NMR
Format: physicochemical
Details: control: UV filter post-added to extract of Comparative 1 film just prior to concentration (recovery)
Procedure: The films described hereinabove, including the comparative example were further characterized for their ability to retain their UV-filtering components under pseudo-physiological conditions with the potential to extract unbound or otherwise mobile UV-filtering compounds. In general, films were immersed in a gently agitated solution of artificial perspiration for 24 hours at room temperature. Following removal of the films, a small amount of dimethylsulfone was added to each extract solution before it was concentrated to dryness under vacuum (65° C./0 torr). The resulting residues were then taken up in DMSO-d6 and analyzed by quantitative ^1H NMR against the added internal standard (dimethylsulfone). The method was validated by control samples, which were prepared by spiking the extracts derived from silicone films made without UV-filtering compounds, with known amounts of UV-filtering compounds immediately prior to concentration under vacuum.
20-mL screw cap borosilicate vials were charged with 10 g of synthetic perspiration (purchased from Reagents). […] Samples were then analyzed using a Bruker 400 MHz NMR spectrometer. Quantitative determination of the extracted UV filter(s) was then made by comparing the relative integration of distinct resonances derived from the UV filtering compound(s) against that of the internal standard (dimethylsulfone).

UV filter found by 1H NMR: 98%
SMILES: CCCCC(CC)COC(=O)C=Cc1ccc(OC)cc1 (stereo not shown) [Octinoxate]

— US20230210755A1, “FUNCTIONAL SKIN COATING POLYMER” (The Johns Hopkins University, priority 2020, published 2023)
